Experimental data: patent US20260014204A1, “STEM CELL-DRUG CARRIER COMPRISING MELATONIN-CONTAINING DRUG CARRIER AND STEM CELL AND USES THEREOF” (priority 2024, published 2026)

System: small intestine epithelial organoids
Test: Flow cytometry of Ly6a-expressing cells, comparison by drug type
Assay type: cell-based
Conditions: drug applied together with stem cells (summary statement)
Procedure: In the art, quercetin is known as a therapeutic agent for inflammatory bowel disease. Accordingly, in Example 4, the revival stem cell induction ability of heterospheroids (hereinafter referred to as ‘Mel-HS’) including melatonin microspheres and 3D mesenchymal stem cells prepared in Example 1-1; and heterospheroids (hereinafter referred to as ‘Q-HS’) including quercetin microspheres and 3D mesenchymal stem cells was compared. The Q-HS was prepared by the same method as Example 1-1, but using quercetin instead of melatonin. Mel-HS was treated in small intestine epithelial organoids and then co-cultured for 48 hours. After culturing, cells expressing a revival stem cell marker Ly6a of the small intestine epithelial organoids were analyzed by flow cytometry. In addition, a Q-HS-treated group was also performed in the same manner as described above. As a control group for the experiment, 2D mesenchymal stem cells (2D) or 3D mesenchymal stem cells (3D) were treated. The flow cytometry results of the Mel-HS-treated group were shown in FIG. 4A, and the flow cytometry results of the Q-HS-treated group were shown in FIG. 4B.

Row | Compound | induction of revival stem cells
1 | COc1ccc2[nH]cc(CCNC(C)=O)c2c1 [melatonin] | induced revival stem cells
2 | O=c1c(O)c(-c2ccc(O)c(O)c2)oc2cc(O)cc(O)c12 [quercetin] | no significant effect
